Patent publication US20240082406A1, “BENZOHETEROCYCLE SUBSTITUTED TETRAHYDROISOQUINOLINE COMPOUND” (SHANGHAI JEMINCARE PHARMACEUTICAL CO., LTD, priority 2020, published 2024)

What was measured:
Sprague-Dawley rats [1] = assay: Effects of multiple administrations on serum phosphorus concentration in rats; format: in vivo, rat; settings: for 24 h nP, course: after 15 days
Protocol: Compound D1-P1-S was evaluated by measuring serum phosphorus concentration, urinary phosphorus, urinary sodium concentration and fecal form in rats.
(§1) Six-week-old Sprague-Dawley rats were purchased from Beijing Vital River Laboratory Animal Technology Co., Ltd. Two animals per cage were placed in SPF class animal rooms for acclimatization for about a week. Throughout the study period, animals were fed feed and water freely and the light cycle was 12 h light/12 h dark. Animal groups: vehicle group, n=5; Tenapanor 0.05 mg/kg, n=5; D1-P1-S 0.01 mg/kg, n=5; D1-P1-S 0.05 mg/kg, n=5; D1-P1-S 0.5 mg/kg, n=5; D1-P1-S 1.0 mg/kg, n=5.
After the start of the experiment, the feeding rhythm of the rats was adjusted to diurnal feeding by fasting overnight for 16 hours and recovering feed for 8 hours during the day. After the administration started, the test compound or the solvent (0.5% Tween 80+99.5% distilled water) was gavaged twice a day during the feeding period, with an interval of 4 hours, for 14 consecutive days. Animal body weight and food consumption were measured every day, serum phosphorus concentration (including baseline value before administration), 24-hour urinary phosphorus excretion amount, and 24-hour urinary sodium excretion amount were measured 1-2 times a week, and feces form in the collection funnel was scored (through two independent observations to assess fecal form). Standard for fecal form score: 1, normal pellets; 2, slightly soft feces (pellets adhered to the side wall of the collector due to moisture); 3, soft feces (loss the normal shape of the pellets); 4, loose and amorphous (completely loss shape, with blot pattern); 5, diarrhea (watery feces). Fecal form score (FFS) in rats was determined by averaging two independent observation scores for all rats within the same group (n=5); the vehicle group mean was 1.
After standing at room temperature for 2 hours, the blood was centrifuged at 4500 g for 10 minutes at 4° C.; and the urine was centrifuged at 3220 g for 5 minutes at 4° C., and the serum phosphorus concentration and urinary phosphorus concentration (phosphomolybdic acid UV endpoint colorimetric method), urinary sodium concentration (indirect ion electrode method) were measured.
(§2) Results were indicated as mean±standard error (Means±SEM), n=5 animals/group. Urinary phosphorus excretion amount (or urinary sodium excretion amount) in rats was standardized corrected against respective dietary phosphorus (or sodium) intake, and the formula was: standardized correction value of urinary phosphorus excretion amount (indicated as nP)=urinary phosphorus excretion amount÷dietary phosphorus intake amount; standardized correction value of urinary sodium excretion amount (indicated as nNa)=urinary sodium excretion amount÷dietary sodium intake amount; fecal form score was analyzed by two-way variance, and verified by non-parametric test. *, p<0.05; **, p<0.01; ***, p<0.001; ****, p<0.000^1.

Sprague-Dawley rats [2] = assay: Inhibition of phosphate and sodium absorption in the intestine of rats by a single dose; format: in vivo, rat; settings: normal rats
Protocol: Compound D1-P1-S was evaluated by measuring urinary phosphorus, urinary sodium concentration and fecal form.
as §1, with “tenapanor 0.3 mg/kg group, n=5; D1-P1-S 0.03 mg/kg group, n=5; D1-P1-S 0.1” for “Tenapanor 0.05”, “0.3” for “0.01”, “D1-P1-S1.0” for “D1-P1-S 0.05 mg/kg, n=5; D1-P1-S 0.5 mg/kg, n=5; D1-P1-S 1.0”
On the day of the experiment, after 8 hours of fasting, the animals were administered the test compound or solvent (0.5% Tween 80+99.5% distilled water) by gavage. The animals were then transferred into metabolic cages for single-cage feeding, and the feed was restored. After 16 hours of administration, urine samples were collected and food consumption was recorded, and the fecal form in the collection funnel was evaluated by two independent observations. Standard for fecal form score: 1, normal pellets; 2, slightly soft feces (pellets adhered to the side wall of the collector due to moisture); 3, soft feces (loss the normal shape of the pellets); 4, loose and amorphous (completely loss shape, with blot pattern); 5, diarrhea (watery feces). Fecal form score (FFS) in rats was determined by averaging two independent observation scores for all rats within the same group (n=5); the vehicle group mean was 1.
The urine was centrifuged at 3220 g for 5 minutes at 4° C., and the urinary phosphorus concentration (phosphomolybdic acid UV endpoint colorimetric method) and urinary sodium concentration (ion selective electrode method) were measured.
as §2, with “error (Means±SEM).” for “error (Means±SEM), n=5 animals/group.”, “by monofactorial” for “by two-way”, “p<0.01; […]” for “p<0.01; ***,”, “****, p<0.0001.” for “****, p<0.000^1.”

[3] = 1 day of treatment at 0.01, 0.05, 0.5 and 1.0 mg/kg

CN1Cc2c(Cl)cc(Cl)cc2C(c2ccc3cn(CCOCCOCCNC(=O)NCCCCNC(=O)NCCOCCOCCn4cc5ccc([C@@H]6CN(C)Cc7c(Cl)cc(Cl)cc76)cc5n4)nc3c2)C1 (stereo partly drawn) [Embodiment D1-P1-S]
24 h nNa (urinary sodium excretion / dietary sodium intake) vs solvent group (Sprague-Dawley rats [1]; [3]): decreased significantly
24 h nP (urinary phosphorus excretion / dietary phosphorus intake) vs solvent group (Sprague-Dawley rats [1]; [3]): tended to decrease
fecal form score vs solvent control (Sprague-Dawley rats [1]; 1 day of treatment at 0.05, 0.5 and 1.0 mg/kg): significantly increased
24 h nP vs solvent group (Sprague-Dawley rats [1]; 1 day of treatment, 1.0 mg/kg): significantly decreased
24 h nP vs solvent group (Sprague-Dawley rats [1]; 10 days of treatment at 0.01, 0.05, 0.5 and 1.0 mg/kg): decreased significantly
24 h nNa (Sprague-Dawley rats [1]; after 10 days of treatment, 0.01 mg/kg and 0.05 mg/kg): increasing trend
24 h nP, course (Sprague-Dawley rats [1]): tended to be stable
24 h nP, course (Sprague-Dawley rats [1]; low dose group (0.01 mg/kg)): tended to increase
serum phosphorus, course after 10 days (Sprague-Dawley rats [1]; all dose groups except the highest dose group of 1.0 mg/kg): tended to be stable
serum phosphorus concentration vs solvent control (Sprague-Dawley rats [1]; gavage twice a day, 0.5 mg/kg or 1.0 mg/kg for 4 days): significantly decreased
loose feces (Sprague-Dawley rats [1]; high doses of 0.5 mg/kg and 1.0 mg/kg, observed less often as administration continued): more severe loose feces
loose feces (Sprague-Dawley rats [1]; low dose of 0.01 mg/kg): no rats had loose feces
serum phosphorus concentration vs solvent control (Sprague-Dawley rats [1]; twice a day, 10 days of treatment at 0.01, 0.05, 0.5, 1.0 mg/kg): decreased significantly
urinary phosphorus excretion amount, dose dependence (Sprague-Dawley rats [2]; single gavage 0.03-1.0 mg/kg, urine collected after 16 hours): dose-effect relationship
urinary sodium excretion amount (Sprague-Dawley rats [2]; single gavage, 16 h urine): significantly reduce
urinary phosphorus excretion amount (Sprague-Dawley rats [2]; single gavage, doses of 0.3 mg/kg and 1.0 mg/kg, 16 h urine): significantly reduce
effect in reducing urinary phosphorus excretion amount compared with Tenapanor (Sprague-Dawley rats [2]; single gavage, same dose (0.3 mg/kg)): better than Tenapanor
water content in rat feces (fecal form) (Sprague-Dawley rats [2]; single gavage, with increasing dose): tendency of increasing
